From article PMC6937582, “Human leukocyte antigen (HLA) class II peptide flanking residues tune the immunogenicity of a human tumor-derived epitope” (The Journal of Biological Chemistry, 2019)
No end group written: not given here.

Target: T1, HLA-DR1 (Homo sapiens, UniProt P01903+P01911, A100R/D57E/F55L/F60I/F76Y/I96L/L162R/M171V/P40L/Q125E/R42F/V115G/Y59C)
T1 construct: DRα*0101 (Uniprot: P01903, residues 26–207); HLA-DRβ1*0101 (Uniprot: P04229, residues 30–219); made in house
Test: HLA-DR1 competitive peptide-binding assay
Settings: Fig. 2B; competition with 4.5 nM biotinylated CLIP99–117 marker peptide on refolded HLA-DR1-CLIP105–117, pH 5, overnight 37 °C, ELISA read-out; triplicate; four-parameter curve fit; read-out: HLA-DR1 binding IC50

| IC50 | Sequence |
| --- | --- |
| 0.535 µM | AGDGRLRLARLALVLLGWVS [5T4_11–30] |
| 0.176 µM | FARRPPLAELAALNLSGSRL [5T4_111–130] |

Same assay, conditions: Fig. 5 B,D,F,H,J; truncated/substituted 5T4_111–130 peptides; competition with biotinylated CLIP99–117, pH 5, overnight 37 °C; representative of two experiments in triplicate; read-out: HLA-DR1 binding (IC50)

| Sequence | IC50 |
| --- | --- |
| FARRPPLAELAAANLSGSRL | 0.725 µM |
| LAELAALNL | 5.14 µM |
| RRPPLAELAALNLSGSRL | 0.417 µM |

Now from value to sequence:

| IC50 | Sequence |
| --- | --- |
| 0.36 µM | FARRPPLAELAALNLS |
| 0.103 µM | FARRPPLAELAALNLSGS |
| 0.136 µM | FARRPPLAELAALNLSGSRL [5T4_111–130] |
| 0.255 µM | FARRPPLAELAALNLSRSRL |
| 0.231 µM | PPLAELAALNLSGSRL |

Same assay, conditions: HLA-DR1 binding (IC50)

| Sequence | IC50 |
| --- | --- |
| FARRPPLAELAALALSGSRL | 0.144 µM |
